Assay results published in the supplement of paper PMC10307832.

Tests used:
Assay in all cases: relative viability (nuclei count vs DMSO), 5 days (fraction); higher = more cells survive
Crenolanib = compound: CC1(COc2ccc3c(c2)ncn3-c2ccc3cccc(N4CCC(N)CC4)c3n2)COC1 [Crenolanib]
How it was run: (§1)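 Viability is treated-well nuclei as a fraction of vehicle-well nuclei, reported as the median across plates. Before counting, lung cancer cell lines were kept overnight at 37 °C in 1536-well plates, pinned with five √10-spaced library-drug doses on vehicle-anchored plates, and left 5 days without medium change, then fixed, permeabilised and Hoechst-stained in one step, imaged at 4× and counted by MetaXpress. A plate passed only if control CV was below 25% and at least one doubling occurred.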

Tivantinib = compound: O=C1NC(=O)[C@@H](c2cn3c4c(cccc24)CCC3)[C@@H]1c1c[nH]c2ccccc12 [Tivantinib]
How it was run: as §1

Crenolanib + Trametinib = compound: CC1(COc2ccc3c(c2)ncn3-c2ccc3cccc(N4CCC(N)CC4)c3n2)COC1 [Crenolanib] + CC(=O)Nc1cccc(-n2c(=O)n(C3CC3)c(=O)c3c(Nc4ccc(I)cc4F)n(C)c(=O)c(C)c32)c1 [Trametinib] (partner 0.02 µM)
How it was run: (§2)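 Five library-drug doses in √10 steps were combined with a fixed anchor-drug dose, or a single drug was given alone, by pin tool to lung cancer cell lines in 1536-well plates the day after seeding. Nuclei were stained and counted after 5 days. Relative viability is the nuclei count in treated wells over that in vehicle wells, taken as the median of duplicate plates.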

Tivantinib + Navitoclax = compound: O=C1NC(=O)[C@@H](c2cn3c4c(cccc24)CCC3)[C@@H]1c1c[nH]c2ccccc12 [Tivantinib] + CC1(C)CCC(c2ccc(Cl)cc2)=C(CN2CCN(c3ccc(C(=O)NS(=O)(=O)c4ccc(N[C@H](CCN5CCOCC5)CSc5ccccc5)c(S(=O)(=O)C(F)(F)F)c4)cc3)CC2)C1 [Navitoclax] (partner 0.5 µM)
How it was run: as §2

| Cell Line | relative viability (Crenolanib; 0.01 µM) | relative viability (Crenolanib; 0.03162 µM) | relative viability (Crenolanib; 0.1 µM) | relative viability (Crenolanib; 0.3162 µM) | relative viability (Crenolanib; 1 µM) | relative viability (Tivantinib; 0.01 µM) | relative viability (Tivantinib; 0.03162 µM) | relative viability (Tivantinib; 0.1 µM) | relative viability (Tivantinib; 0.3162 µM) | relative viability (Crenolanib + Trametinib; first compound 0.01 µM) | relative viability (Crenolanib + Trametinib; first compound 0.03162 µM) | relative viability (Crenolanib + Trametinib; first compound 0.1 µM) | relative viability (Crenolanib + Trametinib; first compound 0.3162 µM) | relative viability (Crenolanib + Trametinib; first compound 1 µM) | relative viability (Tivantinib + Navitoclax; first compound 0.01 µM) | relative viability (Tivantinib + Navitoclax; first compound 0.03162 µM) | relative viability (Tivantinib + Navitoclax; first compound 0.1 µM) | relative viability (Tivantinib + Navitoclax; first compound 0.3162 µM) |
| --- | --- | --- | --- | --- | --- | --- | --- | --- | --- | --- | --- | --- | --- | --- | --- | --- | --- | --- |
| NCI-H1793 | 0.909 | 1.02 | 0.811 | 1.07 | 0.88 | 0.923 | 0.98 | 0.837 | 0.61 | 0.349 | 0.333 | 0.363 | 0.472 | 0.458 | 0.43 | 0.417 | 0.481 |  |
| COR-L 105 | 1.03 | 0.953 | 0.852 | 0.963 | 0.915 | 0.912 | 0.734 | 0.892 | 0.537 | 0.442 | 0.407 | 0.491 | 0.416 | 0.547 | 0.856 | 0.867 | 0.748 | 0.626 |
| NCI-H1437 | 0.983 | 1 | 0.977 | 1.04 | 1.02 | 0.993 | 0.984 | 0.908 | 0.989 | 0.677 | 0.572 | 0.487 | 0.521 | 0.602 | 1.1 | 1.11 | 0.968 | 1.1 |
| HARA | 1.07 | 1 | 0.945 | 1 | 1.05 | 0.982 | 0.775 | 0.941 | 0.625 | 0.795 | 0.955 | 0.774 | 0.723 | 0.628 | 1.14 | 1.13 | 1.12 | 1.14 |
| NCI-H2009 | 1.05 | 1.02 | 0.991 | 0.991 | 0.89 | 0.985 | 0.954 | 0.967 | 1.07 | 0.325 | 0.296 | 0.308 | 0.223 | 0.235 | 1.08 | 1.22 | 1.2 | 1.16 |
| NCI-H1755 | 0.965 | 1.03 | 0.989 | 1.03 | 0.959 | 1.05 | 0.991 | 0.956 | 1.09 | 0.754 | 0.707 | 0.734 | 0.885 | 0.75 | 1.02 | 0.954 | 0.934 | 1.03 |
| LU99A | 1.1 | 0.974 | 1.04 | 1 | 1.02 | 1.06 | 0.76 | 0.909 | 1.01 | 0.527 | 0.499 | 0.514 | 0.618 | 0.541 | 0.758 | 0.789 | 0.767 | 0.486 |
| ChaGo-K-1 | 0.933 | 0.977 | 0.941 | 0.931 | 0.937 | 0.982 | 1.01 | 0.968 | 0.909 | 0.877 | 0.895 | 0.868 | 0.916 | 0.846 | 1.11 | 0.845 | 0.97 | 1.1 |
| NCI-H23 | 1.03 | 0.929 | 0.911 | 1 | 0.766 | 0.975 | 0.762 | 0.982 | 1 | 0.441 | 0.412 | 0.425 | 0.387 | 0.408 | 0.987 | 1.01 | 0.759 | 0.753 |
| PC-3 [JPC-3] | 1.08 | 1.01 | 0.93 | 1.06 | 0.977 | 1.04 | 1.13 | 1.08 | 0.697 | 0.758 |  | 0.632 | 0.623 | 0.585 | 0.775 | 0.829 | 0.801 | 0.574 |
| NCI-H520 | 0.93 | 0.999 | 1.05 | 0.908 | 1.05 | 1.14 | 0.968 | 0.867 | 0.964 | 0.818 | 0.714 | 0.644 | 0.678 | 0.686 | 1.12 | 1.17 | 0.995 | 1.1 |
| NCI-H1666 | 1.05 | 0.974 | 0.951 | 1.04 | 0.965 | 1.01 | 0.952 | 0.977 | 0.83 | 0.887 | 0.824 | 0.857 | 0.985 | 0.83 | 0.94 | 0.79 | 0.961 | 0.568 |
| NCI-H1792 | 1.15 | 0.777 | 0.82 | 0.858 | 0.784 | 0.849 | 0.842 | 0.935 | 1.08 | 0.422 | 0.545 | 0.399 | 0.485 | 0.347 | 0.619 | 0.66 | 0.651 | 0.816 |
| NCI-H727 | 0.949 | 1.05 | 0.873 | 0.943 | 0.909 | 0.941 | 0.897 | 0.802 | 0.631 | 0.437 | 0.387 | 0.359 | 0.382 | 0.447 | 0.412 | 0.432 | 0.311 |  |
| HCC-15 | 1.01 | 0.991 | 0.93 | 1.08 | 0.803 | 0.988 | 0.91 | 0.977 | 1.08 | 0.4 | 0.394 | 0.379 | 0.402 | 0.38 | 0.728 | 0.628 | 0.684 | 0.698 |
| NCI-H647 | 0.983 | 0.915 | 0.973 | 1 | 0.929 | 1.06 | 0.992 | 0.881 | 0.946 | 0.55 | 0.442 | 0.486 | 0.653 | 0.538 | 1.06 | 1.27 | 1.07 | 0.758 |
| NCI-H1650 | 0.927 | 0.955 | 1.03 | 0.867 | 0.876 | 0.956 | 0.813 | 0.829 | 0.849 | 0.715 | 0.534 | 0.521 | 0.747 | 0.575 | 1.33 | 1.33 | 0.987 | 0.929 |
| NCI-H2347 | 1.08 | 0.934 | 0.758 | 1.1 | 1.03 | 1.16 | 0.988 | 1.02 | 1.07 | 0.283 | 0.286 | 0.282 | 0.255 | 0.293 | 0.868 | 0.718 | 0.678 | 0.755 |
